# Results: patent publication US8642642B2, “Heterocyclic arylsulphones suitable for treating disorders that respond to modulation of the serotonin 5HT6 receptor” (Abbott Laboratories, priority 2006, dated 2014)
# Columns and labels:
# [1] = target: T1, human dopamine D3 receptors (Homo sapiens, UniProt P35462); test: Dopamine D3 receptor binding ([125I]-iodosulpride); conditions: for Ki: membranes from HEK-293 cells, 0.1 nM [125I]-iodosulpride; for Ki(D2)/Ki(D3): ratio of receptor binding constants, D2L versus D3
# T1 construct: expressed in transfected cells
# T1 sequence (P35462 whole entry): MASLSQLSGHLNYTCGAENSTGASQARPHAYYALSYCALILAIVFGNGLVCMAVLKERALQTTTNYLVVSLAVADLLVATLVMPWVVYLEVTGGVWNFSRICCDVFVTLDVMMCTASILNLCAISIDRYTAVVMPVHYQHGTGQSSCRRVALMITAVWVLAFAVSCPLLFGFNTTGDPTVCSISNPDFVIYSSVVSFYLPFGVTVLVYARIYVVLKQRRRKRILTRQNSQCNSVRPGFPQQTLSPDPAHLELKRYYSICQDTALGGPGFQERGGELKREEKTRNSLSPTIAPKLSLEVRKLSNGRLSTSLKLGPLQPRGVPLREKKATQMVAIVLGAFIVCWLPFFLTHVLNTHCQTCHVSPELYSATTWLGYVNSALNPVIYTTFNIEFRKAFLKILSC
# Method: (§1) The substance to be tested was either dissolved in methanol/Chremophor® (BASF-AG) or in dimethyl sulfoxide and then diluted with water to the desired concentration.
# Each assay mixture was run in triplicate.
# The incubation buffer contained 50 mM tris, 120 mM NaCl, 5 mM KCl, 2 mM CaCl2, 2 mM MgCl2 and 0.1% bovine serum albumin, 10 μM quinolone and 0.1% ascorbic acid (prepared fresh daily). The buffer was adjusted to pH 7.4 with HCl.
# After having been incubated at 25° C. for 60 minutes, the assay mixtures were filtered through a Whatman GF/B glass fiber filter under vacuum using a cell collecting device. The filters were transferred to scintillation viols using a filter transfer system. After 4 ml of Ultima Gold® (Packard) have been added, the samples were shaken for one hour and the radioactivity was then counted in a Beta-Counter (Packard, Tricarb 2000 or 2200CA). The cpm values were converted into dpm using a standard quench series and the program belonging to the instrument.
# The inhibition curves were analyzed by means of iterative nonlinear regression analysis using the Statistical Analysis System (SAS) which is similar to the “LIGAND” program described by Munson and Rodbard.
# human 5-HT6 receptor = target: T2, human 5-HT6 receptor (Homo sapiens, UniProt P50406); test: Human 5-HT6 receptor binding assay (3H-LSD displacement); conditions: membranes from HEK-293 cells, 2 nM 3H-LSD
# T2 construct: expressed in transfected cells
# T2 sequence (P50406 whole entry): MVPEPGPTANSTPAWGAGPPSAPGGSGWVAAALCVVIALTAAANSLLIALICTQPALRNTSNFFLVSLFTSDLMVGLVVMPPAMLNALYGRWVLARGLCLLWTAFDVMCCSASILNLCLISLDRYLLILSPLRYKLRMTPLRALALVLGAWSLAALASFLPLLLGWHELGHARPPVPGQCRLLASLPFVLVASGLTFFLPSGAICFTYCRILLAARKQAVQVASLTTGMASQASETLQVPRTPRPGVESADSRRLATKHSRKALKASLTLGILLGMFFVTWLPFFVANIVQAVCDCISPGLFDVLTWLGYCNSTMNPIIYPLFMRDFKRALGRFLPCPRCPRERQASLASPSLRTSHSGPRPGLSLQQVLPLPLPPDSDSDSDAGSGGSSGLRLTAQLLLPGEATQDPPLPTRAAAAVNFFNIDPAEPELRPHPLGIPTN
# Method: as §1
# The compounds were dissolved in a concentration of 10^−2 M or 10^−3 M in DMSO. Further dilutions were performed in incubation buffer.
# The procedure for the binding assay was based on the method of Monsma et al. (1993) Mol Pharmacol 43: 320-327. The binding reaction was carried out in a total volume of 0.250 ml for 60 min at 37° C. Membranes from HEK-293 cells stably expressing the human 5-HT6 receptor were incubated with 2 nM ^3H-LSD in the presence or absence of various concentrations of test compound for 60 min at 37° C. Non-specific binding was defined with 100 μM Serotonin (5-HT). Assays were performed in duplicate. Bound and free radioligand was separated by filtration and bound radioactivity determined by liquid scintillation counting.
# The specific ligand binding to the receptors was defined as the difference between the total binding and the nonspecific binding determined in the presence of an excess of unlabelled 5-HT. The results are expressed as a percent of control specific binding obtained in the presence of compound. The IC50 values (concentration causing a half-maximal inhibition of control specific binding) and Hill coefficients (nH) were determined by non-linear regression analysis of the competition curves using Hill equation curve fitting.
# The inhibition constants (Ki) were calculated from the Cheng Prusoff equation (Ki=IC50/(1+(L/KD)), where L=concentration of radioligand in the assay, and KD=affinity of the radioligand for the receptor).
Compound,Ki [1],Ki(D2)/Ki(D3) [1],Ki (human 5-HT6 receptor)
"Cl.O=S(=O)(Nc1ccc([C@@H]2CCNC2)cc1)c1ccc(-c2ccccn2)s1 [Example 69, 5-Pyridin-2-yl-thiophene-2-sulfonic acid ((S)-4-pyrrolidin-3-yl-phenyl)-amide hydrochloride]",10 to 50 nM,+++ (between 100 and 150),10 to 50 nM
"CCCN1CC[C@@H](c2ccc(NS(=O)(=O)c3cc(F)cc(C(F)(F)F)c3)cc2)C1.Cl [Example 103, 3-Fluoro-N-[4-((S)-1-propyl-pyrrolidin-3-yl)-phenyl]-5-trifluoromethyl-benzenesulfonamide hydrochloride]",50 to 150 nM,++ (between 50 and 100),10 to 50 nM
"CCCN1CC[C@@H](c2ccc(NS(=O)(=O)c3ccc(C(F)(F)F)s3)cc2)C1.Cl [Example 76, 5-Trifluoromethyl-thiophene-2-sulfonic acid [4-((S)-1-propyl-pyrrolidin-3-yl)-phenyl]-amide hydrochloride]",1 to 10 nM,+++ (between 100 and 150),1 to 10 nM
"CCCN1CC[C@@H](c2ccc(NS(=O)(=O)c3ccc(OC(F)(F)F)c(Br)c3)cc2)C1.Cl [Example 61, 3-Bromo-N-[4-((S)-1-propyl-pyrrolidin-3-yl)-phenyl]-4-trifluoromethoxy-benzenesulfonamide hydrochloride]",1 to 10 nM,++ (between 50 and 100),10 to 50 nM
"CCCN1CC[C@@H](c2ccc(NS(=O)(=O)c3cccc(-c4csc(C)n4)c3)cc2)C1 [Example 99, 3-(2-Methyl-thiazol-4-yl)-N-[4-((S)-1-propyl-pyrrolidin-3-yl)-phenyl]-benzenesulfonamide]",50 to 150 nM,+ (between 10 and 50),1 to 10 nM
"CCCN1CC[C@@H](c2ccc(NS(=O)(=O)c3ccc(Br)s3)cc2)C1.Cl [Example 59, 5-Bromo-thiophene-2-sulfonic acid [4-((S)-1-propyl-pyrrolidin-3-yl)-phenyl]-amide hydrochloride]",1 to 10 nM,+++ (between 100 and 150),1 to 10 nM
"CCCN1C[C@@H](CF)[C@H](c2ccc(NS(=O)(=O)c3cccc(C(F)(F)F)c3)cc2)C1 (relative stereo) [Example 95, N-[4-(trans-4-Fluoromethyl-1-propyl-pyrrolidin-3-yl)-phenyl]-3-trifluoromethyl-benzenesulfonamide]",10 to 50 nM,+ (between 10 and 50),1 to 10 nM
"COc1cccc(S(=O)(=O)Nc2cccc(C3CNC3)c2)c1 [Example 25, N-(3-Azetidin-3-yl-phenyl)-3-methoxy-benzenesulfonamide]",,,1 to 10 nM
"CCCN1CC(c2ccc(NS(=O)(=O)c3cccc(Cl)c3Cl)cc2)C1 [Example 51, 2,3-Dichloro-N-[4-(1-propyl-azetidin-3-yl)-phenyl]-benzenesulfonamide]",,,50 to 150 nM
"CCCN1CC(c2ccc(NS(=O)(=O)c3ccc(F)c(F)c3)cc2)C1 [Example 54, 3,4-Difluoro-N-[4-(1-propyl-azetidin-3-yl)-phenyl]-benzenesulfonamide]",,,50 to 150 nM

# Results, then the molecule that gave them:
Ki [1],Ki(D2)/Ki(D3) [1],Ki (human 5-HT6 receptor),Compound
,,1 to 10 nM,"Cc1c(S(=O)(=O)Nc2cccc(C3CNC3)c2)sc2ccc(Cl)cc12 [Example 9, 5-Chloro-3-methyl-benzo[b]thiophene-2-sulfonic acid (3-azetidin-3-yl-phenyl)-amide]"
,,10 to 50 nM,"CCCN1CC[C@@H](c2ccc(NS(=O)(=O)c3cc(C(F)(F)F)ccc3OC)cc2)C1 [Example 91, 2-Methoxy-N-[4-((S)-1-propyl-pyrrolidin-3-yl)-phenyl]-5-trifluoromethyl-benzenesulfonamide]"
,,1 to 10 nM,"O=S(=O)(Nc1cccc(C2CCNC2)c1)c1cccc(OC(F)(F)F)c1 (stereo not shown) [Example 6, N-(3-Pyrrolidin-3-yl-phenyl)-3-trifluoromethoxy-benzenesulfonamide]"
,,1 to 10 nM,"O=S(=O)(Nc1cccc(C2CNC2)c1)c1cccc(C(F)(F)F)c1 [Example 31, N-(3-Azetidin-3-yl-phenyl)-3-trifluoromethyl-benzenesulfonamide]"
